Here are results for 1 compound from ChEMBL document CHEMBL1154001, “Discovery of potent and selective DP1 receptor antagonists in the azaindole series” (Bioorg Med Chem Lett, 2009).

Data set [1] can be described thus: Cmax in squirrel monkey at 10 mg/kg. In kind it is ADME, organism-based. The arrangement: dose 10 mg/kg. As to conditions: saimiri, in vivo.
Data set [2] in a line: Bioavailability in cynomolgus monkey. As to conditions: in vivo. Type of data set: ADME, organism-based, Macaca fascicularis.
A short description of data set [3]: Terminal half life in cynomolgus monkey at 10 mg/kg. The arrangement: dose 10 mg/kg. In kind it is ADME, organism-based, Macaca fascicularis. Particulars: in vivo, read-out: beta t1/2 (converted).
Data set [4] can be described thus: Volume of distribution at steady state in Beagle dog at 2 mg/kg. In kind it is ADME, organism-based, Canis lupus familiaris. As to conditions: in vivo, read-out: Vdss. The arrangement: dose 2 mg/kg.
Data set [5] in a line: Terminal half life in Beagle dog at 10 mg/kg. The arrangement: dose 10 mg/kg. Type of data set: ADME, organism-based, Canis lupus familiaris. As to conditions: in vivo, read-out: beta t1/2 (converted).
A short description of data set [6]: Cmax in Beagle dog at 10 mg/kg. Type of data set: ADME, organism-based, Canis lupus familiaris. The arrangement: dose 10 mg/kg. As to conditions: in vivo.
Data set [7] can be described thus: Plasma clearance in rat at 10 mg/kg. Type of data set: ADME, organism-based. The arrangement: dose 10 mg/kg.
Data set [8] is described as follows: Terminal half life in squirrel monkey at 10 mg/kg. The arrangement: dose 10 mg/kg. In kind it is ADME, organism-based. Particulars: saimiri, in vivo, read-out: beta t1/2 (converted).
Data set [9] in a line: Plasma clearance in Beagle dog at 2 mg/kg. In kind it is ADME, organism-based, Canis lupus familiaris. The arrangement: dose 2 mg/kg.
Data set [10] can be described thus: Volume of distribution at steady state in squirrel monkey at 5 mg/kg. In kind it is ADME, organism-based. The arrangement: dose 5 mg/kg. Particulars: saimiri, in vivo, read-out: Vdss.
Data set [11] can be described thus: Bioavailability in rat. Type of data set: ADME, organism-based. Particulars: in vivo.
Data set [12] can be described thus: Cmax in cynomolgus monkey at 4 mg/kg. In kind it is ADME, organism-based, Macaca fascicularis. The arrangement: dose 4 mg/kg. As to conditions: in vivo.
Data set [13] in a line: Volume of distribution at steady state in cynomolgus monkey at 2 mg/kg. The arrangement: dose 2 mg/kg. In kind it is ADME, organism-based, Macaca fascicularis. Particulars: in vivo, read-out: Vdss.
The nature of data set [14]: Terminal half life in rat at 10 mg/kg. The arrangement: dose 10 mg/kg. As to conditions: in vivo, read-out: beta t1/2 (converted). Type of data set: ADME, organism-based.
Data set [15] in a line: Plasma clearance in squirrel monkey at 5 mg/kg. The arrangement: dose 5 mg/kg. Type of data set: ADME, organism-based. As to conditions: saimiri.
A short description of data set [16]: Volume of distribution at steady state in rat at 10 mg/kg. In kind it is ADME, organism-based. The arrangement: dose 10 mg/kg. As to conditions: in vivo, read-out: Vdss.
Data set [17] is described as follows: Bioavailability in Beagle dog. In kind it is ADME, organism-based, Canis lupus familiaris. Particulars: in vivo.
Data set [18] can be described thus: Plasma clearance in cynomolgus monkey at 2 mg/kg. In kind it is ADME, organism-based, Macaca fascicularis. The arrangement: dose 2 mg/kg.
A short description of data set [19]: Cmax in rat at 30 mg/kg. In kind it is ADME, organism-based. Particulars: in vivo. The arrangement: dose 30 mg/kg.
Data set [20] can be described thus: Bioavailability in squirrel monkey. Particulars: saimiri, in vivo. Type of data set: ADME, organism-based.

SMILES strings stand for the structures.

Turning to `CC(C)c1nccc2c1c(Sc1ccc(Cl)c(Cl)c1)c1n2CC[C@@H]1CC(=O)O`, the Cmax in data set [1] was 8.5 µM; in data set [6], 9 µM; in data set [12], 0.06 µM; in data set [19] it was 28 µM. For the same compound, the bioavailability in data set [2] is 4%; in data set [11], 53%; in [17], 23%; in data set [20], 43%. Further, the half-life was 13.8 h in [3], 8.6 h in data set [5], 1.4 h in data set [8] and 8.3 h in [14]. Further, the Vd in data set [4] came out at 1.2 L/kg; in data set [10], 0.78 L/kg; in [13], 1.2 L/kg; in data set [16], 0.47 L/kg. The clearance in data set [7] came to 1.6 mL/min/kg; in [9], 4 mL/min/kg; in data set [15], 7.3 mL/min/kg; in data set [18], 21 mL/min/kg.
